According to patent US20260062422A1 (Halda Therapeutics OpCo, Inc., priority 2022, published 2026):

Tests used:
[1] = Cellular growth inhibition, T-Rex 293 SC cells with doxycycline (progesterone receptor isoform B induced), Example 45; type: cell-based; conditions: progesterone receptor isoform B induced with 10 ng/mL doxycycline, 72 hours, CellTiter-Glo 2.0, Table 11
[2] = test system: T-Rex 293 cell line SC cells lacking increased expression of progesterone receptor isoform B protein; assay: Cellular growth inhibition, T-Rex 293 SC cells without doxycycline, Example 45; type: cell-based; conditions: T-Rex 293 SC cells not exposed to doxycycline, 72 hours treatment, CellTiter-Glo 2.0
T47D cells = assay: Cellular growth inhibition assay for T47D cells, CellTiter-Glo; type: cell-based, human; conditions: 72 hours treatment, CellTiter-Glo 2.0 cell viability
Procedure, shortened: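 Growth inhibition as GI50, fitted with four parameters to CellTiter-Glo luminescence after 72 h of compound exposure (0.5% DMSO). Cells were T47D, grown in insulin-supplemented (0.2 units/mL) DMEM with 10% FBS and treated one day post-seeding.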

Measured: GI50

Cc1sc2c(c1C)C(c1ccc(CC3CC4(CCN(c5ccc(C(=O)N[C@H]6C(C)(C)[C@H](Oc7ccc(C#N)c(Cl)c7)C6(C)C)cn5)CC4)C3)cc1)=N[C@@H](Cc1ncco1)c1nnc(C)n1-2 [Compound I-143]
< 500 nM: [1] | [2] | T47D cells

Cc1sc2c(c1C)C(c1ccc(N3CC(N4CCN(c5ncc(C(=O)N[C@H]6C(C)(C)[C@H](Oc7ccc(C#N)c(Cl)c7)C6(C)C)cn5)CC4)C3)cc1)=NC(Cc1ncco1)c1nnc(C)n1-2 (stereo partly drawn) [Compound I-208]
< 500 nM: [1] | [2] | T47D cells; Homo sapiens, T47D, 72 h
